Assay type in all cases: cell-based, human
Series [1] relates to PIK3CD mRNA. Kind of series: PIK3CD mRNA amount by real-time PCR in ARL4C-expressing HepG2 cells. Conditions: ARL4C-transduced HepG2 cells, 25 μM SecinH3 or 50 μM NSC23766.
The subject of series [2] is ARL4C mRNA. In words: ARL4C mRNA amount by real-time PCR in HLE cells. The procedure: (§1) HLE cells, HCT116 cells, and A549 cells were transfected with 25 to 50 nM ASO and 10 to 20 nM siRNA using Lipofectamine 3000 (Invitrogen, Carlsbad, CA, USA) or RNAiMAX (Invitrogen). Transfected cells were used in the experiments 36 to 48 hours after the end of the transfection.
(§2) Cell migration assays and quantitative real-time PCR analyses were performed according to the methods reported by Fujii S et al. (Oncogene 2015; 34: 4834-44).
(§3) HLE cells and HCT116 cells were transfected with the above-described seven types of ARL4C ASOs and the control ASO at 25 nM, and the ARL4C mRNA amounts were measured by real-time PCR; the results thereof are shown in (a) of FIG. 4. […] In order to optimize the effect of these three types of ARL4C ASOs, four bases were added to each of these three types of ARL4C ASOs, whereby ASO-1312, ASO-1450, and ASO-3223 each of which consisted of 19 bases were produced. With these six types of ARL4C ASOs (ASO-1316, ASO-1312, ASO-1454, ASO-1450, ASO-3225, and ASO-3223), the knockdown effect on ARL4C was further studied.
HLE cells were transfected with ARL4C ASOs (ASO-1316, ASO-1312, ASO-1454, ASO-1450, ASO-3225, and ASO-3223) at 25 nM each, and the ARL4C mRNA amounts were measured by real-time PCR; the results are shown in (c) of FIG. 3. In addition, HLE cells were transfected with ARL4C ASOs (ASO-1316, ASO-1312, ASO-3225, and ASO-3223) at 0.5 to 25 nM each, and the ARL4C mRNA amounts were measured by real-time PCR; the results are shown in (b) of FIG. 4.
HLE cells were treated with 10 μM PD184161 or 10 nM CTNNB1 siRNA (siRNA against CTNNB1), and the ARL4C mRNA amount was measured by real-time PCR; the results are shown in (a) of FIG. 5. In addition, HLE cells were treated with 10 nM CTNNB1 siRNA (siRNA against CTNNB1), and the ARL4C mRNA amount was measured by real-time PCR; the results thereof are shown in (a) of FIG. 6. PD184161 is a compound that inhibits MEK without knocking down […].

In series [3] the test system is PIK3CD mRNA. Kind of series: PIK3CD mRNA amount by real-time PCR in HLE cells. Conditions: HLE cells treated with 25 μM SecinH3. The procedure:
as §1, §2
HLE cells were treated with 25 μM SecinH3 (inhibitor of Arf nucleotide-binding site opener (ARNO)) or 50 μM NSC23766 (Rac inhibitor), and the amount of PIK3CD mRNA was measured by real-time PCR; the results are shown in (c) of FIG. 5.
HLE cells were transfected with control ASO, ASO-1316, and ASO-3223 at 25 nM, and the PIK3CD mRNA amount was measured by real-time PCR; the results are shown in (g) of FIG. 5. In addition, an anti-phosphorylated AKT (pAKT S473) antibody and an anti-AKT antibody as probes were caused to act on cell lysates of HLE cells transfected with control ASO, ASO-1316, and ASO-3223; the results are shown in (h) of FIG. 5.
(Real-time PCR tracks product formation cycle by cycle.)

The subject of series [4] is ARL4C mRNA. Kind of series: Screening of ARL4C ASO knockdown efficiency by real-time PCR in A549 cells. Conditions: screening of 38 types of ARL4C ASOs. The procedure:
as §1, §2
First, base sequences of 15-nucleotide ARL4C were selected based on the structure of ARL4C mRNA. From thousands of ARL4C ASO candidates, those that may cause hepatotoxicity were excluded, and 38 types of ARL4C ASOs (those other than ASO-1312, ASO-1450 and ASO-3223 among the ASOs in Table 1) were selected, by high-dimensional structure prediction of ARL4C mRNA. The ASOs used in this test were those in which all of the phosphodiester bonds were substituted with phosphorothioate bonds. Knockdown efficiencies of ARL4C ASOs in A549 cells (lung adenocarcinoma cells) were investigated by screening experiments using real-time PCR. It has been confirmed that the protein abundance of ARL4C in A549 cells is reduced by treatment with ARL4C siRNA. The ARL4C mRNA amounts in A549 cells treated with 38 types of ARL4C ASOs were measured, and the results are shown in (a) of FIG. 3.

Series [5] concerns ARL4C mRNA. Kind of series: ARL4C mRNA amount by real-time PCR in HCT116 cells. Conditions: HCT116 cells transfected at 25 nM. The procedure:
as §1, §2, §3

Data on nine molecules can be found in patent publication US12071624B2, “Antisense oligonucleotide targeting ARL4C molecule, and nucleic acid drug using antisense oligonucleotide” (OSAKA UNIVERSITY, priority 2018, dated 2024).

As for `CCN(CC)CCCC(C)Nc1nc(C)cc(Nc2ccc3nc(C)cc(N)c3c2)n1` (centres unmarked) [NSC23766], the “PIK3CD mRNA amount” value in the series on PIK3CD mRNA [1] was “suppressed an increase in the PIK3CD mRNA amount”.

As to `O=C(NOCC1CC1)c1cc(Br)c(F)c(F)c1Nc1ccc(I)cc1Cl` [PD184161, reference compound], in the series on ARL4C mRNA [2] (HLE cells treated with 10 μM PD184161), the “ARL4C mRNA amount” value was “reduced ARL4C mRNA amount”. For the molecule `COc1nc(-c2ccc3c(c2)OCO3)n(-c2ccc(NC(=O)CSc3ccccc3)cc2)n1` [SecinH3, reference compound], the “PIK3CD mRNA amount” value in the series on PIK3CD mRNA [3] was “reduced the PIK3CD mRNA amount”; in the series with PIK3CD mRNA [1], “suppressed an increase in the PIK3CD mRNA amount”. As for “ASO-650: 15-mer ARL4C ASO of Table 1, SEQ ID NO 8 (antisense NNNTGGCAGCTGNNG; AmNA modifications; Amido-bridged nucleic acid (AmNA); modified_base (1)..(1) n is Adenine having a structure of AmNA (2′,4′- bridged nucleotide in which R is a methyl group); (1)..(3) n is a, c, g, or t; modified_base (2)..(2) n is Adenine having a structure of AmNA (2′,4′- bridged nucleotide in which R is a methyl group); modified_base (3)..(3) n is Guanine having a structure of AmNA (2′,4′- bridged nucleotide in w)”, in the series on ARL4C mRNA [4], the “knockdown efficiency (ARL4C mRNA amount)” value was “high knockdown efficiencies”. For “ASO-793: 15-mer ARL4C ASO of Table 1, SEQ ID NO 9 (antisense NNNTGGTCACCTNNT; AmNA modifications; Amido-bridged nucleic acid (AmNA); modified_base (1)..(1) n is Adenine having a structure of AmNA (2′,4′- bridged nucleotide in which R is a methyl group); (1)..(3) n is a, c, g, or t; modified_base (2)..(2) n is 5-methylcytosine having a structure of AmNA (2′,4′-bridged nucleotide in which R is a methyl group); modified_base (3)..(3) n is Thymine having a structure of AmNA (2′,4′- bridged nucleot)”, the “knockdown efficiency (ARL4C mRNA amount)” value in the series with ARL4C mRNA [4] was “high knockdown efficiencies”. The same measure, in the same setting: then “ASO-986: 15-mer ARL4C ASO of Table 1, SEQ ID NO 10 (antisense NNNTCATAGAGCNNG; AmNA modifications; Amido-bridged nucleic acid (AmNA); modified_base (1)..(1) n is Adenine having a structure of AmNA (2′,4′- bridged nucleotide in which R is a methyl group); (1)..(3) n is a, c, g, or t; modified_base (2)..(2) n is 5-methylcytosine having a structure of AmNA (2′,4′-bridged nucleotide in which R is a methyl group); modified_base (3)..(3) n is Thymine having a structure of AmNA (2′,4′- bridged nucleot)”, with “high knockdown efficiencies”; and “ASO-1065: 15-mer ARL4C ASO of Table 1, SEQ ID NO 11 (antisense NNNAAATCAGACNNC; AmNA modifications; Amido-bridged nucleic acid (AmNA); modified_base (1)..(1) n is Guanine having a structure of AmNA (2′,4′- bridged nucleotide in which R is a methyl group); (1)..(3) n is a, c, g, or t; modified_base (2)..(2) n is Guanine having a structure of AmNA (2′,4′- bridged nucleotide in which R is a methyl group); modified_base (3)..(3) n is Thymine having a structure of AmNA (2′,4′- bridged nucleotide in w)”, with “high knockdown efficiencies”.

Consider “ASO-1454: 15-mer ARL4C ASO of Table 1, SEQ ID NO 14 (antisense NNNACAAATGAANNT; AmNA modifications; Amido-bridged nucleic acid (AmNA); modified_base (1)..(1) n is Adenine having a structure of AmNA (2′,4′- bridged nucleotide in which R is a methyl group); (1)..(3) n is a, c, g, or t; modified_base (2)..(2) n is Guanine having a structure of AmNA (2′,4′- bridged nucleotide in which R is a methyl group); modified_base (3)..(3) n is Guanine having a structure of AmNA (2′,4′- bridged nucleotide in w)”, for which, in the series on ARL4C mRNA [4], the “knockdown efficiency (ARL4C mRNA amount)” value is given as “high knockdown efficiencies”. Besides, the “ARL4C mRNA amount” value in the series on ARL4C mRNA [2] (HLE cells transfected at 25 nM) and in the series on ARL4C mRNA [5] was “reduced the ARL4C mRNA amount” in each case. For “ASO-3225: 15-mer ARL4C ASO of Table 1, SEQ ID NO 35 (antisense NNNTTACAGTATNNG; AmNA modifications; Amido-bridged nucleic acid (AmNA); modified_base (1)..(1) n is Adenine having a structure of AmNA (2′,4′- bridged nucleotide in which R is a methyl group); (1)..(3) n is a, c, g, or t; modified_base (2)..(2) n is Guanine having a structure of AmNA (2′,4′- bridged nucleotide in which R is a methyl group); modified_base (3)..(3) n is Guanine having a structure of AmNA (2′,4′- bridged nucleotide in w)”, the “knockdown efficiency (ARL4C mRNA amount)” value in the series on ARL4C mRNA [4] was “high knockdown efficiencies”. Also, the “ARL4C mRNA amount” value in the series with ARL4C mRNA [2] (HLE cells transfected at 25 nM) and in the series with ARL4C mRNA [5] was “reduced the ARL4C mRNA amount” each time.
